Assays:
Conditions in all cases: [3H]NMS, CHO-K1 cell membranes, mean ± S.E.M.
hM2 mAChR = target: T1, hM2 mAChR (Homo sapiens, UniProt P08172); experiment: [3H]NMS inhibition radioligand binding, hM2 in CHO-K1 cell membranes
T1 construct: expressed in transfected cells; host or cells: CHO-K1 (membrane preparation)
T1 sequence (P08172 1-466): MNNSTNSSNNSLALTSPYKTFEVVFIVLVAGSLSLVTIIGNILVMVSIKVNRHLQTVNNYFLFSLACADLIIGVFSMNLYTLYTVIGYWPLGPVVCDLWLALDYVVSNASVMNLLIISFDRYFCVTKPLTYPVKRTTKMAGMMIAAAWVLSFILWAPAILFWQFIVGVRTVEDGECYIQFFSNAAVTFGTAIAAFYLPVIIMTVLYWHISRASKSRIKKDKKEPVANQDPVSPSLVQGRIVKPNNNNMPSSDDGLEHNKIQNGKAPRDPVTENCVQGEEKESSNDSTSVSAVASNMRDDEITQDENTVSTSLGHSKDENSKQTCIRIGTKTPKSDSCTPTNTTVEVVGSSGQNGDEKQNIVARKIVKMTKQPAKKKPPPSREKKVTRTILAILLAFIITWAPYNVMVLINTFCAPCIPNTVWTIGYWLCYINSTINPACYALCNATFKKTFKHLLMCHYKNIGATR
Experimental: (§1) CHO-K1 cells stably transfected with the human muscarinic receptor subtypes (hM1–5) were grown in Dulbecco’s modified Eagle’s medium (DMEM) with nutrient mixture F12 (DMEM/F12, 50/50), containing 10% fetal bovine serum, penicillin (100 U/mL), streptomycin (100 U/mL), L-glutamine (4 mM), and geneticin (G-418, 50 μg/mL) at 37 °C in a 5% CO2 humidified incubator. […] Serum (0.7 mL) was added to inactivate the trypsin, and the cells were spun down by centrifuging at 300g for 5 min. The cells were then resuspended in ice-cold 25 mM sodium phosphate buffer containing 5 mM MgCl2, pH 7.4 (binding buffer) and homogenized using a cell disrupter (Ultra-Turrax, setting 3, 30 s). The homogenate was sedimented by centrifugation (17,000g, 15 min). The supernatant was discarded, and the resulting membrane pellets were resuspended with Ultra-Turrax in the same buffer to give a final protein concentration of 1–2 mg/mL. The protein content was determined by the method of Bradford (1976) with bovine serum albumin (Sigma) as a standard and stored at −80 °C.
(§2) Inhibition radioligand binding assays were conducted as previously described[48],[49] with 0.2 nM [^3H]NMS in binding buffer in a final volume of 250 μL. Nonspecific binding was defined in the presence of 10 μM atropine. Briefly, membrane fractions (about 25–70 μg/mL of protein) were incubated with radioligand and unlabeled test compounds for 2 h at r.t. Bound and free radioactivity were separated by filtering the assay mixture through UniFilter GF/B plates using a FilterMate Cell Harvester (PerkinElmer Life and Analytical Science). The filter bound radioactivity was counted by a TopCount NXT Microplate Scintillation Counter (PerkinElmer Life and Analytical Science). Data (cpm) were normalized to percentage-specific binding and analyzed using a four-parameter logistic equation in GraphPad Prism 5.02; IC50 values were determined, and Ki values were calculated.[59]

hM3 mAChR = target: T2, hM3 mAChR (Homo sapiens, UniProt P20309); experiment: [3H]NMS inhibition radioligand binding, hM3 in CHO-K1 cell membranes
T2 construct: expressed in transfected cells; host or cells: CHO-K1 (membrane preparation)
T2 sequence (P20309 whole entry): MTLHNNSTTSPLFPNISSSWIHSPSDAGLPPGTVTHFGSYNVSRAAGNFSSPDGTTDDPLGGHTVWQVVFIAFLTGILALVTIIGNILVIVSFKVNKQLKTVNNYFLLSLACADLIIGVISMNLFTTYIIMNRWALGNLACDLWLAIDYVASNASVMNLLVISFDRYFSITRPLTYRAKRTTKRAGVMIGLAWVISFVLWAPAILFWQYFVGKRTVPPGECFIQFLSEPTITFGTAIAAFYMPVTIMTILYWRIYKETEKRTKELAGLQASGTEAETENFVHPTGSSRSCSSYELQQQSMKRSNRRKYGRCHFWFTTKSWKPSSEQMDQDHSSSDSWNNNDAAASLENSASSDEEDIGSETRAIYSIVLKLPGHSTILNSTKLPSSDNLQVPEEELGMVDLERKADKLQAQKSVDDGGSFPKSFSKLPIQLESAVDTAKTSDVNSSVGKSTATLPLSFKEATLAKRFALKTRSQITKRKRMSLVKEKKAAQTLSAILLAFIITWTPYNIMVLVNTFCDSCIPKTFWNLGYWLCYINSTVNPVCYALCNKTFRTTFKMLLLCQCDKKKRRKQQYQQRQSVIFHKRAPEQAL
Experimental: as §1, §2

hM5 mAChR = target: T3, hM5 mAChR (Homo sapiens, UniProt P08912); experiment: [3H]NMS inhibition radioligand binding, hM5 in CHO-K1 cell membranes
T3 construct: expressed in transfected cells; host or cells: CHO-K1 (membrane preparation)
T3 sequence (P08912 1-532): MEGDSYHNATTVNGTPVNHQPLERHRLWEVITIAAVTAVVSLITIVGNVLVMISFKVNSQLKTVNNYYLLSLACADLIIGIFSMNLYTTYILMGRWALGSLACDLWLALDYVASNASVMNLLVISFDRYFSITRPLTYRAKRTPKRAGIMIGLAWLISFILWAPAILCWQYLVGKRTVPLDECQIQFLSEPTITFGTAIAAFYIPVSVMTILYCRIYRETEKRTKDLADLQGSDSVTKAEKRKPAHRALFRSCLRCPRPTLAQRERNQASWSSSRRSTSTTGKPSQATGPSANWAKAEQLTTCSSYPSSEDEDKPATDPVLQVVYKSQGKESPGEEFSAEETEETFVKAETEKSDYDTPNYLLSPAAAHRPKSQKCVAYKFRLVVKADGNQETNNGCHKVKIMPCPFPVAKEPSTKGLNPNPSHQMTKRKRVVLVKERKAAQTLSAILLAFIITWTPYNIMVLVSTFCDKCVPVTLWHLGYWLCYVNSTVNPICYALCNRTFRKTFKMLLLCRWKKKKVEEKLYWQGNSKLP
Experimental: as §1, §2

hM1 mAChR = target: T4, hM1 mAChR (Homo sapiens, UniProt P11229); experiment: [3H]NMS inhibition radioligand binding, hM1 in CHO-K1 cell membranes
T4 construct: expressed in transfected cells; host or cells: CHO-K1 (membrane preparation)
T4 sequence (P11229 1-460): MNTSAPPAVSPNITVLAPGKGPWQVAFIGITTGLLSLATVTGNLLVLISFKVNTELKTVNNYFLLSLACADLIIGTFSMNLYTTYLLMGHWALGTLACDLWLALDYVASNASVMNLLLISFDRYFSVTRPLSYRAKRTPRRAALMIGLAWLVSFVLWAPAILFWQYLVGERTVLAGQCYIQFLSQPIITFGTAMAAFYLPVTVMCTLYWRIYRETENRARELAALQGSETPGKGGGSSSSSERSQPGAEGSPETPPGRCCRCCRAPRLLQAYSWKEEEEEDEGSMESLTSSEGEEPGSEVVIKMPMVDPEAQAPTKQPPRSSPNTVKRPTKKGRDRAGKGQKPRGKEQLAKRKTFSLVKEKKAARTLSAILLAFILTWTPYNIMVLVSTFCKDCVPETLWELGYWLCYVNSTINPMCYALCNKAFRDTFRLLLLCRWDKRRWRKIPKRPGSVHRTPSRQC
Experimental: as §1, §2

hM4 mAChR = target: T5, hM4 mAChR (Homo sapiens, UniProt P08173); experiment: [3H]NMS inhibition radioligand binding, hM4 in CHO-K1 cell membranes
T5 construct: expressed in transfected cells; host or cells: CHO-K1 (membrane preparation)
T5 sequence (P08173 1-479): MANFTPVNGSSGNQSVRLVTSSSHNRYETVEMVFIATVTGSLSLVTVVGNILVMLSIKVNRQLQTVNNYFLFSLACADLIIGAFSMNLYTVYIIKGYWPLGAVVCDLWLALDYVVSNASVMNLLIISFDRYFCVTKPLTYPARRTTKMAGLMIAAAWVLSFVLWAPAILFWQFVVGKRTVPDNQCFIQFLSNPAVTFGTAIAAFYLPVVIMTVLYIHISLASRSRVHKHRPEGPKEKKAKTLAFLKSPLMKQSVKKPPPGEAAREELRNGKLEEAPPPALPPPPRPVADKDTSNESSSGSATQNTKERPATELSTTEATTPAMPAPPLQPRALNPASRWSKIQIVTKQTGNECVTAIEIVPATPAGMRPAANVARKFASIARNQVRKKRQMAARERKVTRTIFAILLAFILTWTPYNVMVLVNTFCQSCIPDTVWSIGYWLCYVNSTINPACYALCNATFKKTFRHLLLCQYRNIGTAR
Experimental: as §1, §2

Structure (SMILES)	Ki (hM2 mAChR; read-out: pKi hM2 (converted))	Ki (hM3 mAChR; read-out: pKi hM3 (converted))	Ki (hM5 mAChR; read-out: pKi hM5 (converted))	Ki (hM1 mAChR; read-out: pKi hM1 (converted))	Ki (hM4 mAChR; read-out: pKi hM4 (converted))	pKi hM2 (hM2 mAChR)	pKi hM3 (hM3 mAChR)	pKi hM5 (hM5 mAChR)	pKi hM1 (hM1 mAChR)	pKi hM4 (hM4 mAChR)
C[N+](C)(C)CC1COCC(c2ccc(Cc3ccccc3)cc2)O1 (mixture of isomers) [5a/b, 1-((2R*,6S*)-6-(4-Benzylphenyl)-1,4-dioxan-2-yl)-N,N,N-trimethylmethanaminium Iodide and 1-((2R*,6R*)-6-(4-Benzylphenyl)-1,4-dioxan-2-yl)-N,N,N-trimethylmethanaminium Iodide]	4.9 µM	> 10 µM	7.41 µM	> 10 µM	> 10 µM	–	–	–	–	–
C[N+](C)(C)C[C@@H]1COC[C@H](c2ccc(-c3ccccc3)cc2)O1.[I-] (relative stereo) [4a, 1-((2R*,6S*)-6-([1,1′-Biphenyl]-4-yl)-1,4-dioxan-2-yl)-N,N,N-trimethylmethanaminium Iodide]	–	–	–	–	–	5.06 ± 0.02	<5	<5	<5	<5
C[N+](C)(C)C[C@@H]1COC[C@@H](c2ccc(-c3ccccc3)cc2)O1.[I-] (relative stereo) [4b, 1-((2R*,6R*)-6-([1,1′-Biphenyl]-4-yl)-1,4-dioxan-2-yl)-N,N,N-trimethylmethanaminium Iodide]	–	–	–	–	–	5.27 ± 0.12	<5	<5	<5	<5
C[N+](C)(C)C[C@@H]1COC[C@H](c2ccc(Sc3ccccc3)cc2)O1.[I-] (relative stereo) [6a, 1-((2R*,6S*)-6-(4-(Phenylthio)phenyl)-1,4-dioxan-2-yl)-N,N,N-trimethylmethanaminium Iodide]	–	–	–	–	–	5.47 ± 0.07	<5	5.58 ± 0.13	5.50 ± 0.05	5.43 ± 0.05
C[N+](C)(C)C[C@@H]1COC[C@@H](c2ccc(Sc3ccccc3)cc2)O1.[I-] (relative stereo) [6b, 1-((2R*,6R*)-6-(4-(Phenylthio)phenyl)-1,4-dioxan-2-yl)-N,N,N-trimethylmethanaminium Iodide]	–	–	–	–	–	6.71 ± 0.01	5.77 ± 0.05	5.95 ± 0.13	5.51 ± 0.01	5.70 ± 0.02
C[N+](C)(C)C[C@@H]1COC[C@H](c2ccc([S+]([O-])c3ccccc3)cc2)O1.[I-] (relative stereo) [7a, 1-((2R*,6S*)-6-(4-(Phenylsulfinyl)phenyl)-1,4-dioxan-2-yl)-N,N,N-trimethylmethanaminium Iodide]	–	–	–	–	–	5.52 ± 0.02	<5	5.21 ± 0.08	<5	<5
C[N+](C)(C)C[C@@H]1COC[C@@H](c2ccc([S+]([O-])c3ccccc3)cc2)O1.[I-] (relative stereo) [7b, 1-((2R*,6R*)-6-(4-(Phenylsulfinyl)phenyl)-1,4-dioxan-2-yl)-N,N,N-trimethylmethanaminium Iodide]	–	–	–	–	–	6.38 ± 0.10	5.88 ± 0.14	5.74 ± 0.16	5.17 ± 0.08	5.42 ± 0.02
C[N+](C)(C)C[C@@H]1COC[C@H](c2ccc(S(=O)(=O)c3ccccc3)cc2)O1.[I-] (relative stereo) [8a, 1-((2R*,6S*)-6-(4-(Phenylsulfonyl)phenyl)-1,4-dioxan-2-yl)-N,N,N-trimethylmethanaminium Iodide]	–	–	–	–	–	5.13 ± 0.01	<5	5.21 ± 0.14	5.08 ± 0.09	<5
C[N+](C)(C)C[C@@H]1COC[C@@H](c2ccc(S(=O)(=O)c3ccccc3)cc2)O1.[I-] (relative stereo) [8b, 1-((2R*,6R*)-6-(4-(Phenylsulfonyl)phenyl)-1,4-dioxan-2-yl)-N,N,N-trimethylmethanaminium Iodide]	–	–	–	–	–	6.70 ± 0.01	5.63 ± 0.14	5.80 ± 0.06	5.29 ± 0.07	5.20 ± 0.07
C[N+](C)(C)C[C@@H]1CO[C@H](c2ccccc2)CO1.[I-] (relative stereo) [9a, 1-((2R*,5R*)-5-Phenyl-1,4-dioxan-2-yl)-N,N,N-trimethylmethanaminium Iodide]	–	–	–	–	–	5.06 ± 0.10	5.14 ± 0.10	<5	5.63 ± 0.07	5.10 ± 0.07
